# Experimental data taken from publication PMC9865020, “Identification of Novel Small Molecule Ligands for JAK2 Pseudokinase Domain” (Pharmaceuticals, 2023).
# Like-named read-outs stand apart in the source and are kept apart here.
# How the values were obtained:
# [1] = tested on: SET-2 cells; assay: alamarBlue cell viability assay; format: cell-based; conditions: Homo sapiens, read-out: Cell Viability IC50 SET-2
# [2] = tested on: HEL cells; assay: alamarBlue cell viability assay; format: cell-based; conditions: Homo sapiens, 48 h, read-out: Cell Viability IC50 HEL
# [3] = biological target: JAK1 JH2 (Homo sapiens, UniProt P23458); assay: More sensitive FP binding assay, Bodipy FL-labeled JNJ-7706621 tracer
# Sequence of JAK1 JH2 (P23458 553-836): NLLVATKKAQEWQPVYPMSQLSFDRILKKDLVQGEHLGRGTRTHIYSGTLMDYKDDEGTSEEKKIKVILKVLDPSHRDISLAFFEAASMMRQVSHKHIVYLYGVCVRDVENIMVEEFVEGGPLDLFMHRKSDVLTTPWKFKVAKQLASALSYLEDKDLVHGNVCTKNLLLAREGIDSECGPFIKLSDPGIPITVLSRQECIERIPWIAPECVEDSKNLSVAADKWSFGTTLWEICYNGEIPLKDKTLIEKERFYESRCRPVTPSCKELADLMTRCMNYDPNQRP
# [4] = biological target: JAK1 JH1 D1003N (Homo sapiens, UniProt P23458, D1003N); assay: as above
# Sequence of JAK1 JH1 D1003N (P23458 866-1154 D1003N): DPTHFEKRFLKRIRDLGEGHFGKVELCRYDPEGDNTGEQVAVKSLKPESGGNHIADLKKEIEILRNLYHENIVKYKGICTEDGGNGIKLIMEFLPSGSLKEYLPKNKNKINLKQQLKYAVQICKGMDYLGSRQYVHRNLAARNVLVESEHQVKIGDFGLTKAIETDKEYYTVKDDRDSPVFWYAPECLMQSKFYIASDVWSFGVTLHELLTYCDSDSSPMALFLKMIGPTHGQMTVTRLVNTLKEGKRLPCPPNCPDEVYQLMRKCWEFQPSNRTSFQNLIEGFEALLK
# [5] = biological target: JAK2 JH1 D976N (Homo sapiens, UniProt O60674, D976N); assay: Fluorescence polarization binding assay, Bodipy FL-ATP tracer; conditions: for inhibition at 100 µM: read-out: inhibition-% of tracer binding to JAK2 JH1
# Sequence of JAK2 JH1 D976N (O60674 836-1132 D976N): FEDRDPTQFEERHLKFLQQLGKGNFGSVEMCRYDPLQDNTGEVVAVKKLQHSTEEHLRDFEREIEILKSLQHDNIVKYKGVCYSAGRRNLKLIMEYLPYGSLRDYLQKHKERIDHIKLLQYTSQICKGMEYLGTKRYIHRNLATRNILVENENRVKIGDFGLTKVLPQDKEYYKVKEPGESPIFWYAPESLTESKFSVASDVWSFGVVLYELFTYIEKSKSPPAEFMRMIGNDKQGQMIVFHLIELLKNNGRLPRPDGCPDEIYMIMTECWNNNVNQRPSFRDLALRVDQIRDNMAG
# [6] = biological target: T1, JAK2 JH2 wild-type (Homo sapiens, UniProt O60674); assay: as above; conditions: for IC50 / inhibition at 100 µM: FP, Bodipy FL-ATP tracer; for IC50: average ± standard deviation, lower detection limit 3.5 µM, read-out: IC50 of tracer binding to JAK2 JH2 wt; for inhibition at 100 µM: 100 µM analog concentration
# T1 construct: Human JAK2 JH2 (503-827); hexa histidine-tag (C); made in house; host or cells: High Five or Sf9 insect cells
# T1 sequence (O60674 503-827): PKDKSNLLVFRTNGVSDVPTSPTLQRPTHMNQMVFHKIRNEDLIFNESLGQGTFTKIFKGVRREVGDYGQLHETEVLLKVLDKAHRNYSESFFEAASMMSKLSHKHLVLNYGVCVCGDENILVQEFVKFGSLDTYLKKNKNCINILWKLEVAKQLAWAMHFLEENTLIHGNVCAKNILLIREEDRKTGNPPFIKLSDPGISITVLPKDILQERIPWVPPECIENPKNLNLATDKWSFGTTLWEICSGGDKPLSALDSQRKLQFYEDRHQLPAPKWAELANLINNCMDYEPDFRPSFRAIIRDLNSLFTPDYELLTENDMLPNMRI
# [7] = biological target: JAK2 JH2 V617F (Homo sapiens, UniProt O60674, V617F); assay: as above; set-up: Hyperactive mutation V617F in the JAK2 regulatory pseudokinase domain (JH2); His tag (C); made in house; host or cells: High Five or Sf9 insect cells; conditions: for IC50: FP, Bodipy FL-ATP tracer, lower detection limit of assay 3.5 µM, read-out: IC50 value for binding against JAK2 JH2 V617F
# Sequence of JAK2 JH2 V617F (O60674 545-809 V617F limits assumed): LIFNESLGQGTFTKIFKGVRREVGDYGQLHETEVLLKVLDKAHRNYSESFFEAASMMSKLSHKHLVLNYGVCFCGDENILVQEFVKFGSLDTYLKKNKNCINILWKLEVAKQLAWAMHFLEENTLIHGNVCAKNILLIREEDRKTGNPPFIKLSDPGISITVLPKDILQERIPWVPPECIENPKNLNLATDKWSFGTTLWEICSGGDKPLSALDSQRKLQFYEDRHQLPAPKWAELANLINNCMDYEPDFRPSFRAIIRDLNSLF
# [8] = tested on: Ba/F3 hJAK2 V617F cells; assay: alamarBlue cell viability assay; format: cell-based, murine; conditions: Mus musculus, BaF3, 48 h, n=3
# [9] = tested on: Ba/F3-hJAK2 wildtype cells; assay: alamarBlue cell viability assay; format: cell-based, murine; conditions: Mus musculus, 48 h, n=3, read-out: Cell viability IC50 Ba/F3-hJAK2 wt
compound,measurement,setting,value
"O=C(Nc1c[nH]nc1-c1nc2ccc(CN3CCOCC3)cc2[nH]1)NC1CC1 [Compound 2, AT9283, reference compound]",IC50,"[1]; SET-2, 48 h",540 nM
same,IC50,[2]; HEL,1.3 µM
same,IC50,[3],110 nM
same,IC50,[4],60 nM
"Nc1nc(Nc2ccc(S(N)(=O)=O)cc2)nn1C(=S)Nc1c(F)cccc1F [Compound 3, Cdk1/2 inhibitor III, reference compound]",IC50,[5],≤ 3.5 µM
same,IC50,[6],≤ 3.5 µM
same,IC50,[7],≤ 3.5 µM
CN(Cc1nc(N)nc(Nc2ccccc2)n1)Cc1ccc(Br)s1 [Compound 5],inhibition at 100 µM,[5],5%
same,inhibition at 100 µM,[6],60%
same,IC50,[6],95 ± 12 µM
same,IC50,[7],91 µM
"CCN(CC)C(=O)c1ccc(Nc2nc(OCC3CCCCC3)c3nc[nH]c3n2)cc1 [Compound 6, Cdk2 inhibitor IV, reference compound]",IC50,[5],≤ 3.5 µM
same,IC50,[6],≤ 3.5 µM
same,IC50,[7],≤ 3.5 µM
"c1nc2nc(Nc3ccc(N4CCOCC4)cc3)nc(NC3CCCCC3)c2[nH]1 [Compound 7, Reversine, reference compound]",IC50,"[1]; SET-2 (JAK2 V617F heterozygous), 48 h, alamarBlue, upper detection limit 40 µM",4000 nM
same,IC50,"[2]; HEL (JAK2 V617F homozygous), alamarBlue, upper detection limit 40 µM",9.3 µM
same,IC50,[3],150 nM
same,IC50,[8],480 nM
same,IC50,[9],380 nM
same,IC50,[4],350 nM
COC(=O)c1ccc(Nc2[nH]cnc3ncnc2-3)cc1 [Compound 8],IC50,[6],100 ± 22 µM
same,IC50,[7],123 µM
c1ccc(COc2ccc(Nc3ncnc4nc[nH]c34)cc2)cc1 [Compound 9],IC50,[6],774 ± 64 µM
same,IC50,[7],255 µM
COc1cc(/C=N/Nc2ncnc3[nH]cnc23)cc(Br)c1O [Compound 10],IC50,[6],82 ± 28 µM
same,IC50,[7],155 µM
Fc1cccc(/C=N/Nc2[nH]cnc3ncnc2-3)c1 [Compound 11],IC50,[6],192 ± 41 µM
same,IC50,[7],188 µM
Oc1cccc(/C=N/Nc2ncnc3[nH]cnc23)c1 [Compound 12],IC50,[6],164 ± 11 µM
same,IC50,[7],263 µM
COc1ccc(-c2c(C(F)(F)F)nn3c(=O)cc(-c4cccc([N+](=O)[O-])c4)[nH]c23)cc1 [Compound 13],inhibition at 100 µM,[5],15%
same,inhibition at 100 µM,[6],85%
same,IC50,[6],55 ± 5 µM
same,IC50,[7],59 µM
"Cc1cc(Nc2cc(CN3CCOCC3)c3nc(C)c(Cc4ccc(Cl)cc4F)n3n2)n[nH]1 [Compound 14, Gandotinib, reference compound]",IC50,[6],213 ± 63 µM
same,IC50,[7],142 µM
Nc1nc(Nc2ccc3c(c2)CC[C@@H](N2CCCC2)CC3)nn1-c1cc2c(nn1)-c1ccccc1CCC2 [Compound 16],inhibition at 100 µM,[5],86%
same,inhibition at 100 µM,[6],79%
COc1ccc(Nc2nc(N)n[nH]2)cc1 [Compound 17],inhibition at 100 µM,[5],21%
same,inhibition at 100 µM,[6],40%
Nc1nc(Nc2ccc(Cl)cc2)n[nH]1 [Compound 20],inhibition at 100 µM,[5],19%
same,inhibition at 100 µM,[6],55%
Nc1nc(Nc2ccccc2)n[nH]1 [Compound 21],inhibition at 100 µM,[5],27%
same,inhibition at 100 µM,[6],45%
COc1ccc(CNc2n[nH]c(N)n2)cc1 [Compound 22],inhibition at 100 µM,[5],10%
same,inhibition at 100 µM,[6],1%
Cc1ccc(Nc2nc(N)nc(CN(C)Cc3ccc(Br)s3)n2)cc1 [Compound 23],inhibition at 100 µM,[5],0%
same,inhibition at 100 µM,[6],66%
CSc1ccc(CN(C)Cc2nc(N)nc(Nc3ccccc3)n2)cc1 [Compound 25],inhibition at 100 µM,[5],7%
same,inhibition at 100 µM,[6],62%
COc1ccc(CN(C)Cc2nc(N)nc(Nc3ccccc3)n2)cc1F [Compound 26],inhibition at 100 µM,[5],0%
same,inhibition at 100 µM,[6],56%
Nc1nc(CN2CCCC2c2cccs2)nc(Nc2ccccc2)n1 (centres unmarked) [Compound 27],inhibition at 100 µM,[5],0%
same,inhibition at 100 µM,[6],62%
CN(Cc1nc(N)nc(Nc2ccccc2)n1)Cc1cccc(Cl)c1Cl [Compound 28],inhibition at 100 µM,[5],4%
same,inhibition at 100 µM,[6],69%
Nc1nc(COC(=O)c2ccoc2)nc(Nc2ccccc2)n1 [Compound 29],inhibition at 100 µM,[5],3%
same,inhibition at 100 µM,[6],31%
CC(Sc1ccccc1F)c1nc(N)nc(Nc2ccccc2)n1 (centres unmarked) [Compound 30],inhibition at 100 µM,[5],31%
same,inhibition at 100 µM,[6],57%
Nc1nc(CSCCn2cccn2)nc(Nc2ccccc2)n1 [Compound 31],inhibition at 100 µM,[5],11%
same,inhibition at 100 µM,[6],37%
Nc1nc(CSCc2ccc(F)cc2)nc(Nc2ccccc2)n1 [Compound 32],inhibition at 100 µM,[5],18%
same,inhibition at 100 µM,[6],56%
Cc1ccc(Nc2nc(N)nc(-c3ccccc3)n2)cc1 [Compound 33],inhibition at 100 µM,[5],40%
same,inhibition at 100 µM,[6],30%
COc1ccc(-c2c(C(F)(F)F)nn3c(=O)cc(-c4ccccc4)[nH]c23)cc1 [Compound 35],inhibition at 100 µM,[5],10%
same,inhibition at 100 µM,[6],71%
COc1ccc(-c2c(C)[nH]n3c(=O)cc(-c4ccc([N+](=O)[O-])cc4)nc23)cc1 [Compound 37],inhibition at 100 µM,[5],1%
same,inhibition at 100 µM,[6],1%
COc1ccc(-c2c(Cc3ccccc3)[nH]n3c(=O)cc(-c4ccc([N+](=O)[O-])cc4)nc23)cc1 [Compound 38],inhibition at 100 µM,[5],0%
same,inhibition at 100 µM,[6],0%
COC(=O)Cc1cc(=O)n2nc(C(F)(F)F)c(-c3ccc(OC)cc3)c2[nH]1 [Compound 39],inhibition at 100 µM,[5],13%
same,inhibition at 100 µM,[6],0%
CCCc1cc(=O)n2nc(C(F)(F)F)c(-c3ccccc3)c2[nH]1 [Compound 40],inhibition at 100 µM,[5],8%
same,inhibition at 100 µM,[6],8%
Cc1cc(=O)n2[nH]c(C(F)(F)F)c(-c3ccccc3)c2n1 [Compound 41],inhibition at 100 µM,[5],34%
same,inhibition at 100 µM,[6],6%
CC(C)(C)c1cc(=O)n2nc(C(F)(F)F)c(-c3ccccc3)c2[nH]1 [Compound 42],inhibition at 100 µM,[5],27%
same,inhibition at 100 µM,[6],18%
Bodipy FL-ATP [reference compound],Kd,"[5]; read-out: protein-tracer binding affinity, JAK2 JH1, in the FP assay conditions",5 µM
same,Kd,"[6]; in the FP assay conditions, read-out: protein-tracer binding affinity, JAK2 JH2 WT",9 µM
same,Kd,"[7]; in the FP assay conditions, read-out: protein-tracer binding affinity, JAK2 JH2 V617F",7 µM
